The values that follow come from patent US4097496A, “Novel cyclopentane derivatives” (Hoechst Aktiengesellschaft, priority 1973, dated 1978).

The test system of assay [1] is PGF2α-contraction in the isolated guinea pig uterus. Put plainly: Inhibition of the PGF2α-contraction in the isolated guinea pig uterus. As to conditions: Cavia porcellus, agonist PGF2α 40 ng/ml, deJalon solution, probit analysis. The procedure:
(§1) It is surprising that the compounds of the formula I which are closely related to the natural prostaglandins with regard to their structure, as it has been mentioned above, have a strong anti-prostaglandin effect. If, for example, a solution of the compounds of the invention in water is added to the isolated guinea pig ileum or uterus and if for example prostaglandin E2 or F2 α is added to this solution, in concentrations which normally stimulate the isolated ileum or the isolated uterus to strong contractions, only a weaker or no spasmogenic effect of the prostaglandins E2 and F2 α can be detected - depending on the concentrations used.
As test animals were used brown guinea pigs, males and females having a weight of from about 300 to 400 g. The animals were killed by a blow into the neck, the terminal ileum was rapidly taken off and put into a Petri dish containing a pre-heated Tyrode's solution. The intestine was decomposed into four equal sections (2 to 3 cm). […] This latter contraction was considered as being 100%, and the contraction determined by the compound of the invention acting as antagonist was expressed in percent with regard to this basic contraction. […]
The average concentration was determined by means of the probit analysis. The straight line resulting from this method allowed to read the average inhibiting concentration (Table I). […]

Assay [2] concerns PGE2-contraction in the isolated guinea pig ileum. The assay can be described thus: Inhibition of the PGE2-contraction in the isolated guinea pig ileum. As to conditions: Cavia porcellus, agonist PGE2 200 ng/ml; for IC50: 3 min pre-treatment, probit analysis, 37° C; for inhibition at 10 µg/mL: at 10 μg/ml. The procedure:
as §1
As test animals were used brown guinea pigs, males and females having a weight of from about 300 to 400 g. The animals were killed by a blow into the neck, the terminal ileum was rapidly taken off and put into a Petri dish containing a pre-heated Tyrode's solution. The intestine was decomposed into four equal sections (2 to 3 cm). Then the individual sections were put into an organ liquor filled with a Tyrode's solution and bubbled through by oxygen and they were fixed. The bath temperature was 37° C. Composition of the Tyrode's solution: […], 0.2 g of KCl, 0.55 g of CaCl2, 0.2 g of Mg Cl2, 1.0 g of glucose, 1.0 g of NaHCO3 in 1000 ml of distilled water. The free end was connected with the writing lever by a thread. The charge of the thread was 1 g. After a 30 minutes' recovery time the test itself was initiated. The test consisted in a pre-treatment with the antagonist to be tested and in the administration of the agonist three minutes later. The resulting contraction was compared with the initial contraction achieved by the administration of the agonist only. This latter contraction was considered as being 100%, and the contraction determined by the compound of the invention acting as antagonist was expressed in percent with regard to this basic contraction. All substances were dissolved in absolute alcohol and further diluted to their final concentrations with phosphate buffer (pH 7.4). As agonists were used prostaglandin E2 (UPJOHN) in the isolated ileum, and PGF2 in the isolated uterus.
The average concentration was determined by means of the probit analysis. The straight line resulting from this method allowed to read the average inhibiting concentration (Table I).
Inhibition of the PGE2 - and PGF2α -contraction in the isolated guinea pig ileum or uterus

[3] abbreviates: read-out: inhibition in percent for the corresponding dosis.

The term IC50 denotes the midpoint of a concentration-inhibition curve. A word on the inhibition: it is how much of the control response was suppressed.

In brackets after ≈: the same amount, converted by molar mass.

`CCCCCC(O)/C=C/C1CCC(O)C1(CCCCCCC(=O)O)C(=O)OCC` (stereo not drawn) [Example 3, (5 RS, 3" SR)-1-(6'-carboxyhexyl)-2-hydroxy-5-(3"-hydroxy-trans-1"-octenyl)-cyclopentane-carboxylic acid ethyl ester] gave an IC50 in assay [1] of 2 mg/L (≈ 4.85 µM).

Consider `CCCCCC(/C=C/C1CCC(=O)C1(CCC(C)CCCC(=O)OCC)C(=O)OCC)OC1CCCCO1` (stereo not drawn) [Example 4, (5 RS, 3" SR)-1-(6'-Ethoxycarbonyl-3'-methylhexyl)-2-oxo-5-[3"-(2"'-tetrahydropyranyloxy)-trans-1"-octenyl]-cyclopentane-carboxylic acid ethyl ester], for which the IC50 in assay [2] was 1.2 mg/L (≈ 2.24 µM).

As for `CCCCCC(/C=C/C1CCC(O)C1(CCC(C)CCCC(=O)O)C(=O)OCC)OC1CCCCO1` (stereo not drawn) [Example 5, (5 RS, 3" SR)-1-(6'-Carboxy-3'-methylhexyl)-2-hydroxy-5-[3"-(2"'-tetrahydropyranyloxy)-trans-1"-octenyl]-cyclopentane-carboxylic acid ethyl ester], the IC50 in assay [1] was 10 mg/L (≈ 19.6 µM).

With `CCCCCC(/C=C/C1CCC(O)C1(CCCC(C)CCC(=O)O)C(=O)OCC)OC1CCCCO1` (stereo not drawn) [Example 8, (5RS,3"SR)-1-(6'-Carboxy-4'-methylhexyl)-2-hydroxy-5-[3"-(2'"-tetrahydropyranyloxy)-trans-1"-octenyl]-cyclopentane-carboxylic acid ethyl ester], the concentration for half-maximal inhibition (IC50) in assay [2] is < 10 mg/L. Also, in assay [2] (setting [3]), the inhibition at 10 µg/mL came to 80%.

Consider `CCCCCC(/C=C/C1CCC(=O)C1(CCCCC(C)CC(=O)OCC)C(=O)OCC)OC1CCCCO1` (stereo not drawn) [Example 10, (5RS,3"SR)-1-(6'-Ethoxycarbonyl-5'-methylhexyl)-2-oxo-5-[3"-(2'"-tetrahydropyranyloxy)-trans-1"-octenyl]-cyclopentane-carboxylic acid ethyl ester], for which, in assay [2], the 50% inhibitory concentration (IC50) was > 10 mg/L. Moreover, the inhibition at 10 µg/mL in assay [2] (setting [3]) came to 10%.

With `CCCCCC(/C=C/C1CCC(O)C1(CCCCC(C)CC(=O)O)C(=O)OCC)OC1CCCCO1` (stereo not drawn) [Example 11, (5RS,3"SR)-1-(6'-Carboxy-5'-methylhexyl)-2-hydroxy-5-[3"-(2'"-tetrahydropyranyloxy)-trans-1"-octenyl]-cyclopentane-carboxylic acid ethyl ester], the concentration for half-maximal inhibition (IC50) in assay [2] was < 10 mg/L. Moreover, in assay [2] (setting [3]), the inhibition at 10 µg/mL was found to be 80%.

In the case of `CCCCCC(/C=C/C1CCC(=O)C1(CCCCCC(C)C(=O)OCC)C(=O)OCC)OC1CCCCO1` (stereo not drawn) [Example 13, (5RS,3"SR)-1-(6'-Ethoxycarbonylheptyl)-2-oxo-5-[3"-(2'"-tetrahydropyranyloxy)-trans-1"-octenyl]-cyclopentane-carboxylic acid ethyl ester], the half-inhibitory concentration (IC50) in assay [2] is ~5 mg/L (≈ 9.32 µM).

For `CCCCCC(O)/C=C/C1CCC(O)C1(CCCCOCC(=O)O)C(=O)OCC` (stereo not drawn) [Example 30, (5RS,3"SR)-1-(6'-Carboxy-5'-oxahexyl)-2-hydroxy-5-[3"-hydroxy-trans-1"-octentyl]-cyclopentane-carboxylic acid ethyl ester], the IC50 in assay [2] is < 5 mg/L. For the same compound, in assay [2] (at 5 μg/ml, read-out: inhibition in percent for the corresponding dosis), the inhibition at 5 µg/mL was 80%.

Consider `CCCCCC(O)/C=C/C1CCC(O)C1(C/C=C\COCC(=O)O)C(=O)OCC` (stereo not drawn) [Example 32, (5RS,3"SR)-1-(6'-Carboxy-5'-oxa-cis-2'-hexenyl)-2-hydroxy5-[3"-hydroxy-trans-1"-octenyl]-cyclopentane-carboxylic acid ethyl ester], for which the IC50 in assay [2] is ~5 mg/L (≈ 12.1 µM).

In the case of `CCCCCC(/C=C/C1CCC(O)C1(C/C=C/COCC(=O)O)C(=O)OCC)OC1CCCCO1` (stereo not drawn) [Example 35, (5RS,3"SR)-1-(6'-Carboxy-5'-oxa-trans-2'-hexenyl)-2-hydroxy-5-[3"-(2'"-tetrahydropyranyloxy)-trans-1"-octenyl]cyclopntane-carboxylic acid ethyl ester], in assay [2], the IC50 amounted to 2.3 mg/L (≈ 4.63 µM).

On to `CCCCCC(O)/C=C/C1CCC(O)C1(C/C=C/COCC(=O)OCC)C(=O)OCC` (stereo not shown) [Example 36], for which the IC50 in assay [2] was found to be 4.6 mg/L (≈ 10.4 µM).

Take `CCCCCC(O)/C=C/C1CCC(O)C1(C/C=C/COCC(=O)O)C(=O)OCC` (stereo not drawn) [Example 37, (5RS,3"SR)-1-(6'-Carboxy-5'-oxa-trans-2'-hexenyl)-2-hydroxy-5-(3"-hydroxy-trans-1"-octenyl)-cyclopentanecarboxylic acid ethyl ester]: the IC50 in assay [2] was < 10 mg/L. For the same compound, the inhibition at 10 µg/mL in assay [2] (setting [3]) is 65%.

For `CCCCCC(/C=C/C1CCC(=O)C1(Cc1ccccc1CCCC(=O)OCC)C(=O)OCC)OC1CCCCO1` (stereo not drawn) [Example 44, (5RS,3'"SR)-1-[2'-(3"-Ethoxycarbonylpropyl)-benzyl]-2-oxo-5-[3'"-(2""-tetrahydropyranyloxy)-trans-1'"-octenyl]-cyclopentane-carboxylic acid ethyl ester], the IC50 in assay [2] was < 10 mg/L. Further, the inhibition at 10 µg/mL in assay [2] (setting [3]) was found to be 40%.

With `CCCCCC(/C=C/C1CCC(O)C1(Cc1ccccc1CCCC(=O)O)C(=O)OCC)OC1CCCCO1` (stereo not drawn) [Example 45, (5RS,3'"SR)-1-[2'-(3"-Carboxypropyl)-benzyl]-2-hydroxy-5-[3'"-(2""-tetrahydropyranyloxy)-trans-1'"-octenyl]-cyclopentane-carboxylic acid ethyl ester], the IC50 in assay [2] was ~10 mg/L (≈ 18.4 µM).

On to `CCCCCC(O)/C=C/C1CCC(O)C1(Cc1ccccc1CCCC(=O)O)C(=O)OCC` (stereo not drawn) [Example 46, (5RS,3'"SR)-1-[2'-(3"-Carboxypropyl)-benzyl]-2-hydroxy-5-[3'"-hydroxy-trans-1'"-octenyl]-cyclopentane-carboxylic acid ethyl ester], for which the IC50 in assay [2] was < 10 mg/L. Further, the inhibition at 10 µg/mL in assay [2] (setting [3]) came out at 80%.
